Source: patent US20070128217A1 (priority 2003, published 2007)

Legend:
[1] = system: rabbit serum obtained by immunizing a rabbit with the SARS-CoV strain Frankfurt 1; format: binding; set-up: Binding of a rabbit serum to linear peptides / Binding of a rabbit serum to looped peptides / Rabbit serum linear peptides / Rabbit serum looped peptides / Binding of a rabbit serum to linear peptides of protein N of SARS-CoV Urbani (Rabbit serum linear peptides) / Binding of a rabbit serum to looped/cyclic peptides of protein N of SARS-CoV Urbani (Rabbit serum looped peptides): unit not given here
[2] = system: recombinant human anti-SARS-CoV antibody 03-018; format: binding; set-up: Binding of antibody 03-018 to linear peptides of the N protein of SARS-CoV Urbani / Binding of antibody 03-018 to looped/cyclic peptides of the N protein of SARS-CoV Urbani: unit not given here
[3] = system: control sera (pooled serum of ten healthy LUMC hospital workers; commercial negative donor pooled serum from the Dutch bloodbank); format: binding, human; set-up: Binding of Control serum LUMC to linear peptides / Binding of Control serum Blood-bank to linear peptides / Binding of Control serum LUMC to looped peptides / Binding of Control Serum Blood-Bank to Looped peptides / Binding of Control serum LUMC to linear peptides of the protein M of SARS-CoV Urbani / Binding of Control serum Blood-bank to linear peptides of the protein M of SARS-CoV Urbani / Binding of Control serum LUMC to looped peptides of the protein M of SARS-CoV Urbani / Binding of Control Serum Blood-Bank to Looped peptides of the protein M of SARS-CoV Urbani: unit not given here
[4] = system: antibodies in sera from SARS patients (sera 1a, 1b, 2, 6, 37, 62, London, SARS-yellow, SARS-green); format: binding, human; set-up: Binding of serum 6 to linear peptides of protein X1 of SARS-CoV Urbani / Binding of serum 37 to linear peptides of protein X1 of SARS-CoV Urbani / Binding of serum 6 to looped/cyclic peptide (PEPSCAN-ELISA) / Binding of serum 37 to looped/cyclic peptide (PEPSCAN-ELISA) / Binding of serum 37 to looped/cyclic peptides of protein X1 of SARS-CoV Urbani / Binding of serum 6 to linear peptides of protein X2 / Binding of serum 37 to linear peptides of protein X2 / Binding of serum 37 to looped/cyclic peptides of protein X2 of SARS-CoV Urbani / Binding of serum 6 to linear peptides of protein M of SARS-CoV Urbani / Binding of serum 37 to linear peptides of protein M of SARS-CoV Urbani / Binding of serum 6 to looped/cyclic peptides of protein M of SARS-CoV Urbani / Binding of serum 37 to looped/cyclic peptides of protein M of SARS-CoV Urbani / Binding of serum 6 to linear peptides of protein X3 of SARS-CoV Urbani / Binding of serum 37 to linear peptides of protein X3 of SARS-CoV Urbani / Binding of serum 37 to looped/cyclic peptides of protein X3 of SARS-CoV Urbani / Binding of serum 6 to linear peptides of protein X4 of SARS-CoV Urbani / Binding of serum 37 to linear peptides of protein X4 of SARS-CoV Urbani / Binding of serum 37 to looped/cyclic peptides of protein X4 of SARS-CoV Urbani / Binding of serum 6 to linear peptides of protein X5 of SARS-CoV Urbani / Binding of serum 37 to linear peptides of protein X5 of SARS-CoV Urbani / Binding of serum 37 to looped/cyclic peptides of protein X5 of SARS-CoV Urbani / Binding of serum 6 to linear peptides of protein N of SARS-CoV Urbani / Binding of serum 37 to linear peptides of protein N of SARS-CoV Urbani / Binding of serum 6 to linear peptide (PEPSCAN-ELISA) / Binding of serum 1a to looped/cyclic peptides of protein N of SARS-CoV Urbani / Binding of serum 1b to looped/cyclic peptides of protein N of SARS-CoV Urbani / Binding of serum 2 to looped/cyclic peptides of protein N of SARS-CoV Urbani / Binding of serum 6 to looped/cyclic peptides of protein N of SARS-CoV Urbani / Binding of serum 37 to looped/cyclic peptides of protein N of SARS-CoV Urbani / Binding of serum 62 to looped/cyclic peptides of protein N of SARS-CoV Urbani / Binding of serum London to looped/cyclic peptides of protein N of SARS-CoV Urbani / Binding of serum SARS-green to looped/cyclic peptides of protein N of SARS-CoV Urbani: unit not given here

Row | Sequence | Binding of a rabbit serum to linear peptides of protein N of SARS-CoV Urbani (Rabbit serum linear peptides) [1] | Binding of a rabbit serum to looped/cyclic peptides of protein N of SARS-CoV Urbani (Rabbit serum looped peptides) [1] | Binding of antibody 03-018 to linear peptides of the N protein of SARS-CoV Urbani [2] | Binding of antibody 03-018 to looped/cyclic peptides of the N protein of SARS-CoV Urbani [2] | Binding of serum 1a to linear peptides of protein N of SARS-CoV Urbani [4] | Binding of serum 1a to looped/cyclic peptides of protein N of SARS-CoV Urbani [4] | Binding of serum 1b to linear peptides of protein N of SARS-CoV Urbani [4] | Binding of serum 1b to looped/cyclic peptides of protein N of SARS-CoV Urbani [4] | Binding of serum 2 to linear peptides of protein N of SARS-CoV Urbani [4] | Binding of serum 2 to looped/cyclic peptides of protein N of SARS-CoV Urbani [4] | Binding of serum 6 to linear peptides of protein N of SARS-CoV Urbani [4] | Binding of serum 6 to looped/cyclic peptides of protein N of SARS-CoV Urbani [4] | Binding of serum 37 to linear peptides of protein N of SARS-CoV Urbani [4] | Binding of serum 37 to looped/cyclic peptides of protein N of SARS-CoV Urbani [4] | Binding of serum 62 to linear peptides of protein N of SARS-CoV Urbani [4] | Binding of serum 62 to looped/cyclic peptides of protein N of SARS-CoV Urbani [4] | Binding of serum London to linear peptides of protein N of SARS-CoV Urbani [4] | Binding of serum London to looped/cyclic peptides of protein N of SARS-CoV Urbani [4] | Binding of serum SARS-green to linear peptides of protein N of SARS-CoV Urbani [4] | Binding of serum SARS-green to looped/cyclic peptides of protein N of SARS-CoV Urbani [4] | further results
1 | TPKDHIGTRNPNNNA | 0.1 | 0.4 | 0.1 | 0.2 | 0.3 | 0.3 | 0.1 | 0.3 | 0.3 | 0.3 | 0.2 | 0.2 | 0.9 | 0.5 | 0.8 | 0.3 | 0.5 | 0.3 | 0.4 | 0.3 | Binding of Control Serum Blood-Bank to Looped peptides [3]: 0.5; Binding of Control serum Blood-bank to linear peptides [3]: 0.9; Binding of Control serum LUMC to linear peptides [3]: 0.9; Binding of Control serum LUMC to looped peptides [3]: 0.6; Binding of serum SARS-yellow to linear peptides of protein N of SARS-CoV Urbani [4]: 0.7; Binding of serum SARS-yellow to looped/cyclic peptides of protein N of SARS-CoV Urbani [4]: 0.3
2 | QKKQPTVTLLPAADM | 0.2 | 0.7 | 0.1 | 0.3 | 0.3 |  | 0.2 |  | 0.2 |  | 0.2 |  | 0.7 |  | 0.6 |  | 0.6 |  | 0.4 |  | Control Serum Blood-Bank Looped peptides [3]: 0.9; Control serum Blood-bank linear peptides [3]: 0.7; Control serum LUMC linear peptides [3]: 0.6; Control serum LUMC looped peptides [3]: 0.7; Binding of serum SARS-yellow to linear peptides of protein N of SARS-CoV Urbani [4]: 0.5; Recognition of the peptide by sera of SARS-CoV infected individuals, and form (linear, looped/cyclic) in which it is recognized [4]: recognized in looped/cyclic form
3 | KGQQQQGQTVTKKSA | 0.2 | 0.0 | 0.1 | 0.2 |  | 0.2 |  | 0.1 |  | 0.2 |  | 0.1 |  | 0.4 |  | 0.3 |  | 0.3 |  | 0.0 | Binding of Control Serum Blood-Bank to Looped peptides [3]: 0.4; Binding of Control serum Blood-bank to linear peptides [3]: 1.0; Binding of Control serum LUMC to linear peptides [3]: 0.9; Binding of Control serum LUMC to looped peptides [3]: 0.4; Binding of serum 1a to linear peptide (PEPSCAN-ELISA) [4]: 0.3; Binding of serum 1b to linear peptide (PEPSCAN-ELISA) [4]: 0.1; Binding of serum 2 to linear peptide (PEPSCAN-ELISA) [4]: 0.2; Binding of serum 6 to linear peptide (PEPSCAN-ELISA) [4]: 0.3; Binding of serum 37 to linear peptide (PEPSCAN-ELISA) [4]: 0.7; Binding of serum 62 to linear peptide (PEPSCAN-ELISA) [4]: 0.8; Binding of serum London to linear peptide (PEPSCAN-ELISA) [4]: 0.6; Binding of serum SARS-green to linear peptide (PEPSCAN-ELISA) [4]: 0.4; Binding of serum SARS-yellow to linear peptide (PEPSCAN-ELISA) [4]: 0.6; Binding of serum SARS-yellow to looped/cyclic peptides of protein N of SARS-CoV Urbani [4]: 0.1
4 | QGVPINTNSGPDDQI | 0.2 | 0.8 | 0.1 | 0.1 | 0.3 | 0.5 | 0.2 | 0.4 | 0.2 | 0.6 | 0.2 | 0.4 | 0.9 | 0.6 | 0.6 | 1.0 | 0.5 | 0.6 | 0.6 | 1.3 | Binding of Control Serum Blood-Bank to Looped peptides [3]: 1.1; Binding of Control serum Blood-bank to linear peptides [3]: 0.6; Binding of Control serum LUMC to linear peptides [3]: 0.6; Binding of Control serum LUMC to looped peptides [3]: 0.8; Binding of serum SARS-yellow to linear peptides of protein N of SARS-CoV Urbani [4]: 0.6; Binding of serum SARS-yellow to looped/cyclic peptides of protein N of SARS-CoV Urbani [4]: 1.7
5 | HIDAYKTFPPTEPKK | 0.1 | 0.0 | 0.1 | 0.2 | 0.2 | 0.2 | 0.1 | 0.1 | 0.2 | 0.2 | 0.2 | 0.1 | 0.6 | 0.3 | 0.6 | 0.2 | 0.4 | 0.3 | 0.2 | 0.0 | Control Serum Blood-Bank Looped peptides [3]: 0.4; Control serum Blood-bank linear peptides [3]: 0.6; Control serum LUMC linear peptides [3]: 0.7; Control serum LUMC looped peptides [3]: 0.3; Binding of serum SARS-yellow to linear peptides of protein N of SARS-CoV Urbani [4]: 0.5; Binding of serum SARS-yellow to looped/cyclic peptides of protein N of SARS-CoV Urbani [4]: 0.0
